Literature values as cited in patent US10952973B2, “Production method of pregabalin-containing composition and pregabalin-containing composition” (NITTO DENKO CORPORATION, priority 2018, dated 2021).

Compound	acid dissociation constant (pKa) of the carboxyl group (carboxyl group of pregabalin)	pKa of the acid aqueous solution (23° C., 0.35 mol/L aqueous solution)
CC(C)C[C@H](CN)CC(=O)O [pregabalin, Pregabalin]	about 4.2	
CCCCCCCCCCCCOS(=O)(=O)O [dodecylsulfuric acid]		−3
